Columns and labels:
opioid (μ) receptor = opioid (μ) receptor (Homo sapiens, UniProt P35372); assay: Opioid (μ) receptor binding
Description: Another assay useful in the present invention concerns determining the ability of a ligand to bind to a biological receptor utilizing a technique well known in the art referred to as a radioligand binding assay. This assay accurately determines the specific binding of a radioligand to a targeted receptor through the delineation of its total and nonspecific binding components. Total binding is defined as the amount of radioligand that remains following the rapid separation of the radioligand bound in a receptor preparation (cell homogenates or recombinate receptors) from that which is unbound. The nonspecific binding component is defined as the amount of radioligand that remains following separation of the reaction mixture consisting of receptor, radioligand and an excess of unlabeled ligand. Under this condition, the only radioligand that remains represents that which is bound to components other that receptor. The specific radioligand bound is determined by subtracting the nonspecific from total radioactivity bound. For a specific example of radioligand binding assay for μ-opioid receptor, see Wang, J. B. et al. FEBS Letters 1994, 338, 217.
(§1) The opioid (μ) receptor binding capabilities of compounds described herein were determined according to the procedures outlined by Wang et al. (FEBS Letters 1994, 338, 217). The sodium channel receptor binding capabilities of compounds described herein were determined according to the procedures outlined by Catterall et al. (J. Biol. Chem. 1981, 256, 8922). The calcium channel receptor binding capabilities of compounds described herein were determined according to the procedures outlined by Gould et al. (Proc. Natl. Acad. Sci. USA 1982, 79, 3656), Ehlert et al. (Life Sci. 1982, 30, 2191), Reynolds et al. (J. Pharmacol. Exp. Ther. 1986, 237, 731), Moresco et al. (Neurobiology of Aging 1990, II, 433) and Schoemaker et al. (Eur. J. Pharmacol. 1985, III, 273). The potassium channel receptor binding capabilities of compounds described herein were determined according to the procedures outlined by Taylor et al. (J. Biol. Chem. 1984, 259, 13957), Rehm et al. (Proc. Natl. Acad. Sci. USA 1988, 85, 4919), Vasquez et al. (J. Biol. Chem. 1990, 265, 15564) and Mourre et al. (Brain Research 1986, 382, 239).

sodium channel (site 2) = assay: Sodium channel receptor binding (site 2); conditions: sodium channel site 2 binding; read-out: Na (site 2) (IC50)
Experimental: as §1

calcium channel (type N) = calcium channel (type N) (Rattus norvegicus, UniProt Q02294); assay: Calcium channel receptor binding, type N; conditions: read-out: Ca (type N) (IC50)
Experimental: as §1

[1] = biological target: potassium channel [KA], [KV] or [SKCa]; assay: Potassium channel receptor binding; conditions: read-out: K** (IC50)
Experimental: as §1

Sequence of opioid (μ) receptor (P35372 whole entry): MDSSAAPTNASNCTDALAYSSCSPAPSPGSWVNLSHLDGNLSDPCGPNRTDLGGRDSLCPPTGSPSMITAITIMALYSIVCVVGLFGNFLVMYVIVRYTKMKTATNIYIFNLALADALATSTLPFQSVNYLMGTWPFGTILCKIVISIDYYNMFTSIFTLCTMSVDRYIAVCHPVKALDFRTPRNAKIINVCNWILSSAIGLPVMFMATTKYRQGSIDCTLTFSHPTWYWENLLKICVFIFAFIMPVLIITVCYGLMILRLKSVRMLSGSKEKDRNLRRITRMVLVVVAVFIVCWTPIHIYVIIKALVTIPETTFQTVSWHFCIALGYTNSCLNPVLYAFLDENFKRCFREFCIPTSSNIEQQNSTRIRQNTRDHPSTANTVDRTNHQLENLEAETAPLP
Sequence of calcium channel (type N) (Q02294 whole entry): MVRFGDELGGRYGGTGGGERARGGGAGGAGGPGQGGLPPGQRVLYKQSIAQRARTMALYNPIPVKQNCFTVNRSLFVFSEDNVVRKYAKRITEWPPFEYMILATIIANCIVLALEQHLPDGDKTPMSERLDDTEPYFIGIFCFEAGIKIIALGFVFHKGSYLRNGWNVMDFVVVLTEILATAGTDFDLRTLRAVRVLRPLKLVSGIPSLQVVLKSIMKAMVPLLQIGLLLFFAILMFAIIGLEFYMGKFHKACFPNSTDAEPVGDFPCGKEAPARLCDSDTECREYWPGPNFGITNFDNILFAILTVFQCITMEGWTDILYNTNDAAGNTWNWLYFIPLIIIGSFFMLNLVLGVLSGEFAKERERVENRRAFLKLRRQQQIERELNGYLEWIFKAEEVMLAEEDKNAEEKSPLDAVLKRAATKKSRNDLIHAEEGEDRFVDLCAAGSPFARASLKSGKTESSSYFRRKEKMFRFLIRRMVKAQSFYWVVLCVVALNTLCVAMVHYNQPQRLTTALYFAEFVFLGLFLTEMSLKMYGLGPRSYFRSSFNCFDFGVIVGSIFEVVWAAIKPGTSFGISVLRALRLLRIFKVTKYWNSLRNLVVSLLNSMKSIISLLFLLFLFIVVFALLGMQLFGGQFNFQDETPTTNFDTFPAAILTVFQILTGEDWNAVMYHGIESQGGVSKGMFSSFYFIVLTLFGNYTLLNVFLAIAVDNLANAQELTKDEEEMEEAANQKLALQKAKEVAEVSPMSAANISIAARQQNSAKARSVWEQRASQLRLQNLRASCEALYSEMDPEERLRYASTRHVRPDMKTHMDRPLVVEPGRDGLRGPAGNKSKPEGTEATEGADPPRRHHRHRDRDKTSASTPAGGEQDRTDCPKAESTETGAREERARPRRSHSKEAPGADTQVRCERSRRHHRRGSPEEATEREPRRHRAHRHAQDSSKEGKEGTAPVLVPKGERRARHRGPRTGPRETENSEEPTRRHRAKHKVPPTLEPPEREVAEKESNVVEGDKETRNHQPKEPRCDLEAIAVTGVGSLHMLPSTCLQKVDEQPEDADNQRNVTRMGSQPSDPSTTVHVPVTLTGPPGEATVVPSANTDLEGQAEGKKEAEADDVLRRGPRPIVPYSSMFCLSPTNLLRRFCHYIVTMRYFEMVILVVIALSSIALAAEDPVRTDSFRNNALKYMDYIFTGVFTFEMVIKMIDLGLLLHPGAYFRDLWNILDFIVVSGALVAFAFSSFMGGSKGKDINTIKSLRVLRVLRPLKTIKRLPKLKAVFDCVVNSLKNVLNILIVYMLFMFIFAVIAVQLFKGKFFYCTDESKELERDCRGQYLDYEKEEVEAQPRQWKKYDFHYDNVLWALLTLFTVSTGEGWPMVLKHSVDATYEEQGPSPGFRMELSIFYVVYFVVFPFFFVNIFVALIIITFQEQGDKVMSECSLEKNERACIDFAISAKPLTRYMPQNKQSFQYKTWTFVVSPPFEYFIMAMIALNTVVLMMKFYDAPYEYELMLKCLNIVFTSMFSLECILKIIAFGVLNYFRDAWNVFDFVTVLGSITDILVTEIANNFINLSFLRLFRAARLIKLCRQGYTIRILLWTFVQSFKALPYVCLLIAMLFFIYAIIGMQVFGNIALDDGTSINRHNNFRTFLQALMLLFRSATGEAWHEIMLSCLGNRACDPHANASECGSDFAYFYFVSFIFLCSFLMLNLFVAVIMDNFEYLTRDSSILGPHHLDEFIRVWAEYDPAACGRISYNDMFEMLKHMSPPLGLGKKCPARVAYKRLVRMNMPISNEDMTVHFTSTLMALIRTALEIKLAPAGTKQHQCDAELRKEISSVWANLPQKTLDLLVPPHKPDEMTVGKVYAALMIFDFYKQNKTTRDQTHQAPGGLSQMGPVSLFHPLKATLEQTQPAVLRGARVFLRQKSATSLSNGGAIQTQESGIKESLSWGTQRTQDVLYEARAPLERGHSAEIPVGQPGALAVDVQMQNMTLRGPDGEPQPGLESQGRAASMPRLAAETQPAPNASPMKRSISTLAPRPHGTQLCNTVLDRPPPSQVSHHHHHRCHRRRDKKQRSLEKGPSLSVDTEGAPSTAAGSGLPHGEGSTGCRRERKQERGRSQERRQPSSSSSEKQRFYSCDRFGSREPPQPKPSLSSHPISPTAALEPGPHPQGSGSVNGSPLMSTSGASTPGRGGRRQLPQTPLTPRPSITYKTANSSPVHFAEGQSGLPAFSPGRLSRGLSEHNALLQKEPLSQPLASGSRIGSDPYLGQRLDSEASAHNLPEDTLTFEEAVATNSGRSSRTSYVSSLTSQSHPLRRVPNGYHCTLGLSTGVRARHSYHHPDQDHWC
Sequence of calcium channel (type N) (P54287 whole entry partner): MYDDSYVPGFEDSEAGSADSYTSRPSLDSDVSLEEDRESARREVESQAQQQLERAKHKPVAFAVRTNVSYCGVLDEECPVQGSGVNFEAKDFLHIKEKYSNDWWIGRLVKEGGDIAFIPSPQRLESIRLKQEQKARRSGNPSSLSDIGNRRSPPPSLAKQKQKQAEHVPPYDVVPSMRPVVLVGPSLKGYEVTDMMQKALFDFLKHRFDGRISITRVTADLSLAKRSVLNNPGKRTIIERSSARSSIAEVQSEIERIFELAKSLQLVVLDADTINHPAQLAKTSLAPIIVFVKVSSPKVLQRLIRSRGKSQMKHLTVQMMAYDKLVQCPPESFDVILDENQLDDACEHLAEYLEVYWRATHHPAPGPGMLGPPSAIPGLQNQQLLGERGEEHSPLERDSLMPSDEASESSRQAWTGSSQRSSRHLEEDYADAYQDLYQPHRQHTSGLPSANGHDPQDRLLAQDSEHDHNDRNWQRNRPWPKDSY
Sequence of calcium channel (type N) (P54290 25-944 partner limits assumed): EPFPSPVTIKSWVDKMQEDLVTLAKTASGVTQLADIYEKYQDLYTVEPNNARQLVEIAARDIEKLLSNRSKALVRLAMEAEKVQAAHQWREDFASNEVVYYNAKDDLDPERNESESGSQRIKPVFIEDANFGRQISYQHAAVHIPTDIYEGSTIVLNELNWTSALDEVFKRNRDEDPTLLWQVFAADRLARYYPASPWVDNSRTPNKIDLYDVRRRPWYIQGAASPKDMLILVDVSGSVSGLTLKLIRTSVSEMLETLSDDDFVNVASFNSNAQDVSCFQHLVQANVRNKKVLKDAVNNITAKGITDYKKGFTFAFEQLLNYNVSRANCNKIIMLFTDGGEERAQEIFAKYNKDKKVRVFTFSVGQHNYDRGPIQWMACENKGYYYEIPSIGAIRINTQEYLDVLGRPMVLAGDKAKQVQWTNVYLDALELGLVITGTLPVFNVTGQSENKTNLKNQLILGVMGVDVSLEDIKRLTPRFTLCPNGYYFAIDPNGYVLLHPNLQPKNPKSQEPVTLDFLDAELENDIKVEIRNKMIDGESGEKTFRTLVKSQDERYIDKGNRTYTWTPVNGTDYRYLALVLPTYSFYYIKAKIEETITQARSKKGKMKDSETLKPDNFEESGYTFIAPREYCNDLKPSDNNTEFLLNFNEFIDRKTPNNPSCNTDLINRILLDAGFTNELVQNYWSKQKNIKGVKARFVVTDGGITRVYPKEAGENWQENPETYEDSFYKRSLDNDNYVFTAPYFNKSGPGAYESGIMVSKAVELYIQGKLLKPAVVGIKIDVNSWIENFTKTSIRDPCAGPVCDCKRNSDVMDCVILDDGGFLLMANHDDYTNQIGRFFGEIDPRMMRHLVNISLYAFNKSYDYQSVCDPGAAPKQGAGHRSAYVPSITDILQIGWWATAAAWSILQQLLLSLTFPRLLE
Sequence of calcium channel (type N) (P54290 945-1091 partner limits assumed): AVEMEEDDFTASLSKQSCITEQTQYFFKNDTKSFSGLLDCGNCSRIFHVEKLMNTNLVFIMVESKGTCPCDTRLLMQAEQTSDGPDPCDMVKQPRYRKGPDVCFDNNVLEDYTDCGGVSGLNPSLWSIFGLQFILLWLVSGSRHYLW

| SMILES | IC50 (opioid (μ) receptor) [nM] | IC50 (sodium channel (site 2)) [nM] | IC50 (calcium channel (type N)) [nM] | IC50 [1] [nM] |
| --- | --- | --- | --- | --- |
| CN(CC(NC(=O)Nc1cccc(C(F)(F)F)c1)C(C)(C)C)C1CCN(Cc2ccccc2)C1 (centres unmarked) [Compound 9, 1-(1-{[(1-Benzyl-pyrrolidin-3-yl)-methyl-amino]-methyl}-2,2-dimethyl-propyl)-3-(3-trifluoromethyl-phenyl)-urea] | > 1000 | < 100 | > 1000 | > 1000 |
| CN(C(=O)C(NC(=O)Nc1cccc(C(F)(F)F)c1)C(C)(C)C)C1CCN(Cc2ccccc2)C1 (centres unmarked) [Compound 8, N-(1-Benzyl-pyrrolidin-3-yl)-3,3,N-trimethyl-2-[3-(3-trifluoromethyl-phenyl)-ureido]-butyramide] | > 1000 | < 100 | > 1000 | > 1000 |
| CC(C)(C)[C@H](NC(=O)Nc1cccc(C(F)(F)F)c1)C(=O)N[C@H]1CCN(Cc2ccccc2)C1 [Compound 3b, N-(1-Benzyl-pyrrolidin-3-(S)-yl)-3,3-dimethyl-2-(S)-[3-(3-trifluoromethyl-phenyl)-ureido]-butyramide] | < 1000 | < 100 | > 1000 | > 1000 |
| CC(C)(C)[C@H](NC(=O)Nc1cc(F)ccc1F)C(=O)N[C@@H]1CCN(Cc2ccccc2)C1 [Compound 3d, N-(1-Benzyl-pyrrolidin-3-(R)-yl)-2-(S)-[3-(2,5-difluoro-phenyl)-ureido]-3,3-dimethyl-butyramide] | > 1000 | < 1000 | > 1000 | > 1000 |
| CN(C)CCN(Cc1ccccc1)C(=O)[C@@H]1CCCN1C(=O)Nc1ccc(OC(F)(F)F)cc1 [Compound 22, Pyrrolidine-1,2-dicarboxylic acid 2-[benzyl-(2-dimethylamino-ethyl)-amide] 1-[(4-trifluoromethoxy-phenyl)-amide]] |  | < 1000 | > 1000 |  |
| CC(C)(C)[C@H](NC(=O)Nc1cc(F)ccc1F)C(=O)N[C@H]1CCN(Cc2ccccc2)C1 [Compound 3c, N-(1-Benzyl-pyrrolidin-3-(S)-yl)-2-(S)-[3-(2,5-difluoro-phenyl)-ureido]-3,3-dimethyl-butyramide] | > 1000 | < 1000 | > 1000 | > 1000 |
| CC(C)(C)[C@H](NC(=O)Nc1cccc(C(F)(F)F)c1)C(=O)N[C@@H]1CCN(Cc2ccccc2)C1 [Compound 3a, N-(1-Benzyl-pyrrolidin-3-(R)-yl)-3,3-dimethyl-2-(S)-[3-(3-trifluoromethyl-phenyl)-ureido]-butyramide] | > 1000 | < 1000 | > 1000 | > 1000 |
| CN(C(=O)C(NC(=O)Nc1ccc(OC(F)(F)F)cc1)C(C)(C)C)C1CCN(Cc2ccccc2)C1 (centres unmarked) [Compound 10, N-(1-Benzyl-pyrrolidin-3-yl)-3,3,N-trimethyl-2-[3-(4-trifluoromethoxy-phenyl)-ureido]-butyramide] | > 1000 | < 1000 | > 1000 | > 1000 |
| CC(C)(C)[C@H](NC(=O)Nc1cccc(C(F)(F)F)c1)C(=O)N[C@@H](Cc1ccccc1)C(=O)N1CCNCC1 [Compound 15, N-(1-Benzyl-2-oxo-2-piperazin-1-yl-ethyl)-3,3-dimethyl-2-[3-(3-trifluoromethyl-phenyl) -ureido]-butyramide] | > 1000 | > 1000 | > 1000 |  |
| CN(C)CCN(Cc1ccccc1)C(=O)[C@@H](NC(=O)Nc1ccc(OC(F)(F)F)cc1)C(C)(C)C [Compound 17, N-Benzyl-N-(2-dimethylamino-ethyl)-3,3-dimethyl-2-[3-(4trifluoromethoxy-phenyl)-ureido]-butyramide] | > 1000 | < 100 | > 1000 |  |
| CN(C)CCN(Cc1ccccc1)C(=O)[C@@H]1Cc2ccccc2CN1C(=O)Nc1cccc(C(F)(F)F)c1 [Compound 3g, 3,4-Dihydro-1H-isoquinoline-2,3-dicarboxylic acid 3-(S)-[benzyl-(2-dimethylamino-ethyl)-amide] 2-[(3-trifluoromethyl-phenyl)-amide]] | > 1000 | < 100 | > 1000 | > 1000 |
| CC(C)(C)[C@H](NC(=O)Nc1ccc(OC(F)(F)F)cc1)C(=O)N[C@H]1CCN(Cc2ccccc2)C1 [Compound 19, N-(1-Benzyl-pyrrolidin-3-yl)-3,3-dimethyl-2-[3-(4-trifluoromethoxy-phenyl)-ureido]-butyramide] | > 1000 | < 1000 | > 1000 |  |
| CN(C)C[C@H](Cc1ccccc1)NC(=O)[C@@H](NC(=O)Nc1cccc(C(F)(F)F)c1)C(C)(C)C [Compound 18, N-(1-Benzyl-2-dimethylamino-ethyl)-3,3-dimethyl-2-[3-(3-trifluoromethyl-phenyl)-ureido]-butyramide] | < 100 | < 1000 | > 1000 | > 1000 |
| CN(C)CCN(Cc1ccccc1)C(=O)[C@@H](NC(=O)Nc1cccc(C(F)(F)F)c1)C(C)(C)C [Compound 16, N-Benzyl-N-(2-dimethylamino-ethyl)-3,3-dimethyl-2-[3-(3-trifluoromethyl-phenyl)-ureido]-butyramide] | > 1000 | < 1000 | > 1000 |  |
| O=C(NC1CCN(Cc2ccccc2)CC1)[C@@H]1Cc2ccccc2CN1C(=O)Nc1cccc(C(F)(F)F)c1 [Compound 3e, 3,4-Dihydro-1H-isoquinoline-2,3-dicarboxylic acid 3-(S)-[(1-benzyl-piperidin-4-yl)-amide] 2-[(3-trifluoromethyl-phenyl)-amide]] | > 1000 | < 100 | > 1000 | > 1000 |
| O=C(NC1CCN(Cc2ccccc2)CC1)[C@@H]1Cc2ccccc2CN1C(=O)Nc1ccc(OC(F)(F)F)cc1 [Compound 3f, 3,4Dihydro-1H-isoquinoline-2,3-dicarboxylic acid 3-(S)-[(1-benzyl-piperidin-4-yl)-amide] 2-[(4-trifluoromethoxy-phenyl)-amide]] | > 1000 | < 100 | > 1000 | > 1000 |
| CC(C)(C)[C@@H](CN[C@H](CN)Cc1ccccc1)NC(=O)Nc1cccc(C(F)(F)F)c1 [Compound 5, 1-{1-[(2-Amino-1-benzyl-ethylamino)-methyl]-2,2-dimethy-propyl}-3-(3-trifluoromethyl-phenyl)-urea] | > 1000 | < 100 | > 1000 | > 1000 |
| CC(C)(C)C(NC(=O)Nc1cccc(C(F)(F)F)c1)C(=O)NC(CN)Cc1ccccc1 (centres unmarked) [Compound 4, N-(2-Amino-1-benzyl-ethyl)-3,3-dimethyl-2-[3-(3-trifluoromethyl-phenyl)ureido]-butyramide] | < 100 | < 100 | > 1000 | > 1000 |
| CN(CC(NC(=O)Nc1ccc(OC(F)(F)F)cc1)C(C)(C)C)C1CCN(Cc2ccccc2)C1 (centres unmarked) [Compound 11, 1-(1-{[(1-Benzyl-pyrrolidin-3-yl)-methyl-amino]-methyl}-2,2-dimethyl-propyl)-3-(4-trifluoromethoxy-phenyl)-urea] | > 1000 | < 100 | > 1000 | > 1000 |
| CN(C)CCN(Cc1ccccc1)C(=O)[C@@H]1Cc2ccccc2CN1C(=O)Nc1ccc(OC(F)(F)F)cc1 [Compound 3h, 3,4-Dihydro-1H-isoquinoline-2,3-dicarboxylic acid 3-(S)-[benzyl-(2-dimethylamino-ethyl)-amide] 2-[(4-trifluoromethoxy-phenyl)-amide]] | > 1000 | < 100 | > 1000 | > 1000 |
